4 sequences from US20070128217A1 (priority 2003, published 2007) can be followed below.

In assay [1] the test system is antibodies in sera from SARS patients (sera 1a, 1b, 2, 6, 37, 62, London, SARS-yellow, SARS-green). Type of assay: binding, human. Also on record: Binding of serum 6 to linear peptides of protein X1 of SARS-CoV Urbani / Binding of serum 37 to linear peptides of protein X1 of SARS-CoV Urbani / Binding of serum 6 to looped/cyclic peptide (PEPSCAN-ELISA) / Binding of serum 37 to looped/cyclic peptide (PEPSCAN-ELISA) / Binding of serum 37 to looped/cyclic peptides of protein X1 of SARS-CoV Urbani / Binding of serum 6 to linear peptides of protein X2 / Binding of serum 37 to linear peptides of protein X2 / Binding of serum 37 to looped/cyclic peptides of protein X2 of SARS-CoV Urbani / Binding of serum 6 to linear peptides of protein M of SARS-CoV Urbani / Binding of serum 37 to linear peptides of protein M of SARS-CoV Urbani / Binding of serum 6 to looped/cyclic peptides of protein M of SARS-CoV Urbani / Binding of serum 37 to looped/cyclic peptides of protein M of SARS-CoV Urbani / Binding of serum 6 to linear peptides of protein X3 of SARS-CoV Urbani / Binding of serum 37 to linear peptides of protein X3 of SARS-CoV Urbani / Binding of serum 37 to looped/cyclic peptides of protein X3 of SARS-CoV Urbani / Binding of serum 6 to linear peptides of protein X4 of SARS-CoV Urbani / Binding of serum 37 to linear peptides of protein X4 of SARS-CoV Urbani / Binding of serum 37 to looped/cyclic peptides of protein X4 of SARS-CoV Urbani / Binding of serum 6 to linear peptides of protein X5 of SARS-CoV Urbani / Binding of serum 37 to linear peptides of protein X5 of SARS-CoV Urbani / Binding of serum 37 to looped/cyclic peptides of protein X5 of SARS-CoV Urbani / Binding of serum 6 to linear peptides of protein N of SARS-CoV Urbani / Binding of serum 37 to linear peptides of protein N of SARS-CoV Urbani / Binding of serum 6 to linear peptide (PEPSCAN-ELISA) / Binding of serum 1a to looped/cyclic peptides of protein N of SARS-CoV Urbani / Binding of serum 1b to looped/cyclic peptides of protein N of SARS-CoV Urbani / Binding of serum 2 to looped/cyclic peptides of protein N of SARS-CoV Urbani / Binding of serum 6 to looped/cyclic peptides of protein N of SARS-CoV Urbani / Binding of serum 37 to looped/cyclic peptides of protein N of SARS-CoV Urbani / Binding of serum 62 to looped/cyclic peptides of protein N of SARS-CoV Urbani / Binding of serum London to looped/cyclic peptides of protein N of SARS-CoV Urbani / Binding of serum SARS-green to looped/cyclic peptides of protein N of SARS-CoV Urbani: unit not given here.

Assay [2] deals with control sera (pooled serum of ten healthy LUMC hospital workers; commercial negative donor pooled serum from the Dutch bloodbank). Type of assay: binding, human. Also noted: Binding of Control serum LUMC to linear peptides / Binding of Control serum Blood-bank to linear peptides / Binding of Control serum LUMC to looped peptides / Binding of Control Serum Blood-Bank to Looped peptides / Binding of Control serum LUMC to linear peptides of the protein M of SARS-CoV Urbani / Binding of Control serum Blood-bank to linear peptides of the protein M of SARS-CoV Urbani / Binding of Control serum LUMC to looped peptides of the protein M of SARS-CoV Urbani / Binding of Control Serum Blood-Bank to Looped peptides of the protein M of SARS-CoV Urbani: unit not given here.

Assay [3] has as its system rabbit serum obtained by immunizing a rabbit with the SARS-CoV strain Frankfurt 1. Type of assay: binding. Also noted: Binding of a rabbit serum to linear peptides / Binding of a rabbit serum to looped peptides / Rabbit serum linear peptides / Rabbit serum looped peptides / Binding of a rabbit serum to linear peptides of protein N of SARS-CoV Urbani (Rabbit serum linear peptides) / Binding of a rabbit serum to looped/cyclic peptides of protein N of SARS-CoV Urbani (Rabbit serum looped peptides): unit not given here.

Take TVYHITVSQIQLSLL: in assay [1], the “Binding of serum 1a to linear peptides of protein X2” value was 0.6, the “Binding of serum 1a to looped/cyclic peptides of protein X2 of SARS-CoV Urbani” value was found to be 0.4, the “Binding of serum 1b to linear peptides of protein X2” value was 0.5 and the “Binding of serum 1b to looped/cyclic peptides of protein X2 of SARS-CoV Urbani” value is on record as 0.4. In assay [1], the “Binding of serum 2 to linear peptides of protein X2” value is given as 0.5, the “Binding of serum 2 to looped/cyclic peptides of protein X2 of SARS-CoV Urbani” value was determined as 0.3, the “Binding of serum 6 to linear peptides of protein X2” value turned out to be 0.4 and the “Binding of serum 6 to looped/cyclic peptides of protein X2 of SARS-CoV Urbani” value is reported as 0.2. For the same sequence, in assay [1], the “Binding of serum 37 to linear peptides of protein X2” value turned out to be 0.6, the “Binding of serum 37 to looped/cyclic peptides of protein X2 of SARS-CoV Urbani” value is recorded as 0.4, the “Binding of serum 62 to linear peptides of protein X2” value is reported as 0.4 and the “Binding of serum 62 to looped/cyclic peptides of protein X2 of SARS-CoV Urbani” value came to 0.5. Further, in assay [1], the “Binding of serum London to linear peptides of protein X2” value is 0.4, the “Binding of serum London to looped/cyclic peptides of protein X2 of SARS-CoV Urbani” value amounted to 0.2, the “Binding of serum SARS-green to linear peptides of protein X2” value came out at 0.1 and the “Binding of serum SARS-green to looped/cyclic peptides of protein X2 of SARS-CoV Urbani” value is 0.2. Also, in assay [1], the “Binding of serum SARS-yellow to linear peptides of protein X2” value was determined as 0.7 and the “Binding of serum SARS-yellow to looped/cyclic peptides of protein X2 of SARS-CoV Urbani” value is on record as 0.3. In assay [2], the “Binding of Control Serum Blood-Bank to Looped peptides” value stood at 0.6, the “Binding of Control serum Blood-bank to linear peptides” value amounted to 0.5, the “Binding of Control serum LUMC to linear peptides” value worked out at 0.5 and the “Binding of Control serum LUMC to looped peptides” value is 0.5. Further, in assay [3], the “Binding of a rabbit serum to linear peptides” value was determined as 0.7 and the “Binding of a rabbit serum to looped peptides” value was found to be 0.3.
For TYSTAWLCALGKVLP, in assay [1], the “Binding of serum 1a to linear peptides of protein X5 of SARS-CoV Urbani” value turned out to be 0.8, the “Binding of serum 1a to looped/cyclic peptides of protein X5 of SARS-CoV Urbani” value is 0.5, the “Binding of serum 1b to linear peptides of protein X5 of SARS-CoV Urbani” value was found to be 0.6 and the “Binding of serum 1b to looped/cyclic peptides of protein X5 of SARS-CoV Urbani” value is reported as 0.3. For the same sequence, in assay [1], the “Binding of serum 2 to linear peptides of protein X5 of SARS-CoV Urbani” value is recorded as 0.9, the “Binding of serum 2 to looped/cyclic peptides of protein X5 of SARS-CoV Urbani” value is reported as 1.1, the “Binding of serum 6 to linear peptides of protein X5 of SARS-CoV Urbani” value came to 0.6 and the “Binding of serum 6 to looped/cyclic peptides of protein X5 of SARS-CoV Urbani” value is recorded as 0.4. Besides, in assay [1], the “Binding of serum 37 to linear peptides of protein X5 of SARS-CoV Urbani” value came out at 0.7, the “Binding of serum 37 to looped/cyclic peptides of protein X5 of SARS-CoV Urbani” value turned out to be 0.6, the “Binding of serum 62 to linear peptides of protein X5 of SARS-CoV Urbani” value came out at 0.8 and the “Binding of serum 62 to looped/cyclic peptides of protein X5 of SARS-CoV Urbani” value stood at 0.8. Moreover, in assay [1], the “Binding of serum London to linear peptides of protein X5 of SARS-CoV Urbani” value is recorded as 0.7, the “Binding of serum London to looped/cyclic peptides of protein X5 of SARS-CoV Urbani” value stood at 0.2, the “Binding of serum SARS-green to linear peptides of protein X5 of SARS-CoV Urbani” value was found to be 0.7 and the “Binding of serum SARS-green to looped/cyclic peptides of protein X5 of SARS-CoV Urbani” value stood at 0.3. Also, in assay [1], the “Binding of serum SARS-yellow to linear peptides of protein X5 of SARS-CoV Urbani” value worked out at 0.4 and the “Binding of serum SARS-yellow to looped/cyclic peptides of protein X5 of SARS-CoV Urbani” value was 0.5. For the same sequence, in assay [2], the “Binding of Control Serum Blood-Bank to Looped peptides” value amounted to 0.5, the “Binding of Control serum Blood-bank to linear peptides” value was determined as 0.9, the “Binding of Control serum LUMC to linear peptides” value is on record as 0.5 and the “Binding of Control serum LUMC to looped peptides” value was 0.6. Besides, in assay [3], the “Rabbit serum linear peptides” value is reported as 0.6 and the “Rabbit serum looped peptides” value was 0.7.
As for VAAGMEAQFLYLYAL, in assay [1], the “Binding of serum 1a to linear peptides of protein X1 of SARS-CoV Urbani” value turned out to be 0.7, the “Binding of serum 1a to looped/cyclic peptide (PEPSCAN-ELISA)” value is 0.5, the “Binding of serum 1b to linear peptides of protein X1 of SARS-CoV Urbani” value is listed as 0.6 and the “Binding of serum 1b to looped/cyclic peptide (PEPSCAN-ELISA)” value came out at 0.4. Also, in assay [1], the “Binding of serum 2 to linear peptides of protein X1 of SARS-CoV Urbani” value was found to be 0.5, the “Binding of serum 2 to looped/cyclic peptide (PEPSCAN-ELISA)” value is recorded as 0.4, the “Binding of serum 6 to linear peptides of protein X1 of SARS-CoV Urbani” value was 0.4 and the “Binding of serum 6 to looped/cyclic peptide (PEPSCAN-ELISA)” value amounted to 0.3. Moreover, in assay [1], the “Binding of serum 37 to linear peptides of protein X1 of SARS-CoV Urbani” value was 0.5, the “Binding of serum 37 to looped/cyclic peptide (PEPSCAN-ELISA)” value amounted to 0.5, the “Binding of serum 62 to linear peptides of protein X1 of SARS-CoV Urbani” value was determined as 0.4 and the “Binding of serum 62 to looped/cyclic peptide (PEPSCAN-ELISA)” value is on record as 0.5. Besides, in assay [1], the “Binding of serum London to linear peptides of protein X1 of SARS-CoV Urbani” value is 0.2, the “Binding of serum London to looped/cyclic peptide (PEPSCAN-ELISA)” value was 0.2, the “Binding of serum SARS-green to linear peptides of protein X1 of SARS-CoV Urbani” value amounted to 0.2 and the “Binding of serum SARS-green to looped/cyclic peptide (PEPSCAN-ELISA)” value is given as 0.3. Moreover, in assay [1], the “Binding of serum SARS-yellow to linear peptides of protein X1 of SARS-CoV Urbani” value is reported as 0.3 and the “Binding of serum SARS-yellow to looped/cyclic peptide (PEPSCAN-ELISA)” value is listed as 0.5. Besides, in assay [2], the “Binding of Control Serum Blood-Bank to Looped peptides” value is 0.5, the “Binding of Control serum Blood-bank to linear peptides” value stood at 0.5, the “Binding of Control serum LUMC to linear peptides” value came to 0.9 and the “Binding of Control serum LUMC to looped peptides” value turned out to be 0.8. For the same sequence, in assay [3], the “Binding of a rabbit serum to linear peptides” value was found to be 0.1 and the “Binding of a rabbit serum to looped peptides” value is 0.5.
VAFLAVFQSATKIIA: in assay [1], the “Binding of serum 1a to linear peptides of protein X1 of SARS-CoV Urbani” value is 0.6, the “Binding of serum 1a to looped/cyclic peptide (PEPSCAN-ELISA)” value was determined as 0.6, the “Binding of serum 1b to linear peptides of protein X1 of SARS-CoV Urbani” value came to 0.5 and the “Binding of serum 1b to looped/cyclic peptide (PEPSCAN-ELISA)” value stood at 0.4. In assay [1], the “Binding of serum 2 to linear peptides of protein X1 of SARS-CoV Urbani” value is listed as 0.5, the “Binding of serum 2 to looped/cyclic peptide (PEPSCAN-ELISA)” value was found to be 0.6, the “Binding of serum 6 to linear peptides of protein X1 of SARS-CoV Urbani” value was 0.7 and the “Binding of serum 6 to looped/cyclic peptide (PEPSCAN-ELISA)” value was found to be 0.7. Besides, in assay [1], the “Binding of serum 37 to linear peptides of protein X1 of SARS-CoV Urbani” value worked out at 0.6, the “Binding of serum 37 to looped/cyclic peptide (PEPSCAN-ELISA)” value is listed as 0.6, the “Binding of serum 62 to linear peptides of protein X1 of SARS-CoV Urbani” value worked out at 0.6 and the “Binding of serum 62 to looped/cyclic peptide (PEPSCAN-ELISA)” value is reported as 0.6. In addition, in assay [1], the “Binding of serum London to linear peptides of protein X1 of SARS-CoV Urbani” value was determined as 0.2, the “Binding of serum London to looped/cyclic peptide (PEPSCAN-ELISA)” value is recorded as 0.7, the “Binding of serum SARS-green to linear peptides of protein X1 of SARS-CoV Urbani” value was 0.2 and the “Binding of serum SARS-green to looped/cyclic peptide (PEPSCAN-ELISA)” value is 0.4. In assay [1], the “Binding of serum SARS-yellow to linear peptides of protein X1 of SARS-CoV Urbani” value is 0.4 and the “Binding of serum SARS-yellow to looped/cyclic peptide (PEPSCAN-ELISA)” value is 0.5. For the same sequence, in assay [2], the “Binding of Control Serum Blood-Bank to Looped peptides” value was determined as 0.7, the “Binding of Control serum Blood-bank to linear peptides” value came out at 0.6, the “Binding of Control serum LUMC to linear peptides” value is listed as 0.5 and the “Binding of Control serum LUMC to looped peptides” value is reported as 0.7. In assay [3], the “Binding of a rabbit serum to linear peptides” value stood at 0.2 and the “Binding of a rabbit serum to looped peptides” value is on record as 0.6.
